These results are taken from patent US9657009B2, “Heteroaryl substituted pyridyl compounds useful as kinase modulators” (BRISTOL-MYERS SQUIBB COMPANY, priority 2012, dated 2017).

The target in test [1] is IRAK4 (Homo sapiens (Human), UniProt Q9NWZ3). Description: IRAK4 Inhibition Assay. The format is biochemical. The method, then: IRAK4 Inhibition Assay The assays were performed in U-bottom 384-well plates. […] The reaction was initiated by the combination of IRAK4 with substrates and test compounds. The reaction mixture was incubated at room temperature for 60 min. and terminated by adding 45 μL of 35 mM EDTA to each sample.
Chain of IRAK4 (Q9NWZ3 whole entry, species assumed): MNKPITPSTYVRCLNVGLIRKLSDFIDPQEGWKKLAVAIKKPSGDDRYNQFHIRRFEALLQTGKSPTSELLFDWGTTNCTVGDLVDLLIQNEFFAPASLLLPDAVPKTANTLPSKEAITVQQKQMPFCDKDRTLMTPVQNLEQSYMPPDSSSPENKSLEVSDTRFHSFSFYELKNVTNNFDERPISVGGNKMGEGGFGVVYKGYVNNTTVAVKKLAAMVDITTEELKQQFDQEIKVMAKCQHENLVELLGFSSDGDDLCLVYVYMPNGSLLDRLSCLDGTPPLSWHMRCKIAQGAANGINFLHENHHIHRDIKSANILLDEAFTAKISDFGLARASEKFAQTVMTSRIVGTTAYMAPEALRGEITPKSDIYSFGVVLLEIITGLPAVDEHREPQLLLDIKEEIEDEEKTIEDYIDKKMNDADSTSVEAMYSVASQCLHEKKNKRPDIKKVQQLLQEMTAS

For test [2], the system named is TLR2 induced IL-6 in peripheral blood mononuclear cells (PBMCs). Description: PBMC TLR2 Induced IL-6 Assay. The format is cell-based. The conditions noted are these: lipoteichoic acid 10 μg/ml, IL-6 by ELISA. The method, then: PBMC TLR2 Induced IL-6 Assay Peripheral blood mononuclear cells (PBMCs) were isolated from human blood containing the anti-coagulant EDTA (2.5 mM) by centrifugation over a FICOLL® gradient. […] At the end of the culture, plates were centrifuged at 1800 rpm for 10 minutes to pellet the cells. Supernatants were harvested and analyzed for IL-6 levels by ELISA (BD Biosciences, San Jose, Calif.).
A general note: An ELISA detects its analyte on a solid surface through an enzyme-linked reagent.

Where [3] appears, read: ATP 500 μM; IRAK4 0.6 nM; 60 min at room temperature; read-out: IRAK4 IC50.
The mark [4] stands for this setting: human PBMCs, 5 hours, values marked * are EC50, read-out: Cell EC50 (*EC50).

The structures appear in SMILES notation. Like-named read-outs stand apart in the source and are kept apart here.

Take `CC(C)(O)[C@H](F)CNC(=O)c1cnc(Nc2ncc(C#N)cc2Cl)cc1NC1CCC(F)C1` (some centres unmarked) [Example 57]: the half-maximal inhibitory concentration (IC50) (usually the concentration needed to halve the response being measured) in test [1] (setting [3]) came to 1.8 nM. Moreover, in test [2] (setting [4]), the EC50 (commonly the midpoint of the concentration-response curve) came to 68 nM.
With `CC(C)(O)[C@H](F)CNC(=O)c1cnc(Nc2ncc(C#N)cc2Cl)cc1NC1CCC(F)C1` (some centres unmarked) [Example 62], the concentration for half-maximal inhibition (IC50) in test [1] (setting [3]) turned out to be 1.7 nM. Besides, the EC50 in test [2] (setting [4]) worked out at 52 nM.
Regarding `CC(C)(O)[C@H](F)CNC(=O)c1cnc(Nc2ncc(C#N)cc2Cl)cc1NC1CCCC1F` (some centres unmarked) [Example 70], in test [1] (setting [3]), the IC50 was 3.2 nM. In addition, the concentration for a half-maximal effect (EC50) in test [2] (setting [4]) is 91 nM.
In the case of `CC(C)(O)[C@H](F)CNC(=O)c1cnc(Nc2ncc(C#N)cc2Cl)cc1NC1CCCC1F` (some centres unmarked) [Example 71], in test [1] (setting [3]), the half-inhibitory concentration (IC50) was determined as 2.8 nM. Further, in test [2] (setting [4]), the 50% effective concentration (EC50) came to 394 nM.
For the molecule `CC(C)(O)[C@H](F)CNC(=O)c1cnc(Nc2ncc(C#N)cc2Cl)cc1NC1CCCC1F` (some centres unmarked) [Example 73], in test [1] (setting [3]), the concentration for half-maximal inhibition (IC50) was 1.5 nM. Also, the EC50 in test [2] (setting [4]) is 132 nM.
Regarding `CC(C)(O)[C@H](F)CNC(=O)c1cnc(Nc2ncc(C#N)cc2Cl)cc1NC1CCCC1F` (some centres unmarked) [Example 74], in test [1] (setting [3]), the half-maximal inhibitory concentration (IC50) was found to be 2.7 nM. Further, the 50% effective concentration (EC50) in test [2] (setting [4]) was determined as 84 nM.
On the same counts, the results for `CC(C)(O)[C@H](F)CNC(=O)c1cnc(Nc2ncc(C#N)cc2Cl)cc1NC1CCCC1O` (some centres unmarked) [Example 78] are 3.7 nM and 64 nM.
For the molecule `CC(C)(O)[C@H](F)CNC(=O)c1cnc(Nc2ncc(C#N)cc2F)cc1NC1CCC(F)C1` (some centres unmarked) [Example 82], in test [1] (setting [3]), the IC50 came to 3 nM. For the same molecule, in test [2] (setting [4]), the EC50 was 105 nM.
With `CC(C)(O)[C@H](F)CNC(=O)c1cnc(Nc2ncc(C#N)cn2)cc1NC1CCC(F)C1` (some centres unmarked) [Example 87], in test [1] (setting [3]), the concentration for half-maximal inhibition (IC50) was 3.5 nM. Further, in test [2] (setting [4]), the EC50 amounted to 197 nM.
On to `CC(C)(O)[C@H](F)CNC(=O)c1cnc(Nc2ncc(C#N)cn2)cc1NC1CCC(F)C1` (some centres unmarked) [Example 88], for which, in test [1] (setting [3]), the half-inhibitory concentration (IC50) was 5.4 nM. In test [2] (setting [4]), the EC50 was 266 nM.
As to `CC(C)(O)[C@H](F)CNC(=O)c1cnc(Nc2ncc(F)cc2F)cc1NC1CCCOC1` (some centres unmarked) [Example 109], the IC50 in test [1] (setting [3]) was determined as 13.7 nM. Moreover, the EC50 in test [2] (setting [4]) is 350 nM.
As to `CC(C)(O)[C@H](F)CNC(=O)c1cnc(Nc2ncc(F)cc2F)cc1NC1CCCOC1` (some centres unmarked) [Example 110], the IC50 in test [1] (setting [3]) was determined as 15.7 nM. Also, in test [2] (setting [4]), the half-maximal effective concentration (EC50) stood at 705 nM.
Take `CC(C)(O)[C@H](F)CNC(=O)c1cnc(Nc2ncc(C#N)cc2F)cc1NC1CCC(F)C1` (some centres unmarked) [Example 115]: the 50% inhibitory concentration (IC50) in test [1] (setting [3]) came out at 4.5 nM. In addition, the EC50 in test [2] (setting [4]) worked out at 65 nM.
With `CC(C)Nc1cc(Nc2ncc(C#N)cc2F)ncc1C(=O)NC1CCC(C(C)(O)C2CC2)CC1` (centres unmarked) [Example 145], in test [1] (read-out: IRAK4 IC50; ATP 500 μM; IRAK4 0.6 nM; 60 min at room temperature), the 50% inhibitory concentration (IC50) was found to be 4.3 nM. The EC50 in test [2] (setting [4]) came out at 275 nM.
`CC(C)(O)[C@H](F)CNC(=O)c1cnc(Nc2ncc(C#N)cc2Cl)cc1NC1CCC(F)C1` (some centres unmarked) [Example 157]: the IC50 in test [1] (setting [3]) worked out at 2 nM. Besides, the concentration for a half-maximal effect (EC50) in test [2] (Homo sapiens, PBMC, 5 h, values marked * are EC50, read-out: Cell EC50 (*EC50)) is 71 nM.
With `CC(C)(O)[C@H](F)CNC(=O)c1cnc(Nc2ncc(C#N)cc2Cl)cc1NC1CCC(F)C1` (some centres unmarked) [Example 158], the half-inhibitory concentration (IC50) in test [1] (setting [3]) turned out to be 2.3 nM. For the same molecule, in test [2] (setting [4]), the concentration giving a half-maximal response (EC50) stood at 102 nM.
